Biological target: T1, EAG1 (mEAG1) (Mus musculus, UniProt Q60603)
T1 construct: gene Kcnh1
T1 sequence (Q60603 505-702): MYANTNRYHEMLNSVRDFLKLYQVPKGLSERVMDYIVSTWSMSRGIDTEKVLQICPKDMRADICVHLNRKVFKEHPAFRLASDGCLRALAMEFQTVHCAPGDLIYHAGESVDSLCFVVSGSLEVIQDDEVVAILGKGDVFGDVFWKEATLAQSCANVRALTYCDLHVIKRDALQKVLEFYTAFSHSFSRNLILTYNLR
Experiment: tryptophan fluorescence titration of purified C-terminal region; gating effect also seen in inside-out patches
Format: binding

O=c1c(O)c(-c2cc(O)c(O)c(O)c2)oc2cc(O)cc(O)c12 [myricetin] was tested, and the Kd was > 100 µM.

Source: publication PMC2932742, “Identifying Regulators for EAG1 Channels with a Novel Electrophysiology and Tryptophan Fluorescence Based Screen” (PLoS ONE, 2010)
